Laboratory results published in article PMC12390684 (Viruses, 2025).
Read-outs that look alike come from different tables or passages of the source.

Legend:
[1] = target: T1, IN-GCN2 interaction (6xHis-IN / GST-GCN2) (UniProt P04585+Q9P2K8); assay: biochemical; format: binding, HIV-1 IN; human GCN2; conditions: for IC50: IC50, inhibition of IN-GCN2 interaction; for IN-GCN2 interaction (%): screen, single dose 100 µM, single replicate, residual AlphaLISA signal normalized to DMSO control
[2] = Cytotoxicity (CellTiter 96 AQueous); format: cell-based; conditions: human
[3] = tested on: P4 MAGI CCR5+ cells; assay: Cytotoxicity (CellTiter 96 AQueous); format: cell-based
[4] = target: T2, HIV-1 IN (Human immunodeficiency virus type 1 group M subtype B, UniProt P04585); conditions: cited from earlier work
[5] = tested on: HIV-1Laï; assay: microbe, parasite or virus in culture; format: cell-based; conditions: for EC50: 24 h infection, read-out: EC50
[6] = target: T2, HIV-1 IN; assay: Strand transfer (ST) gel-based assay; format: biochemical; conditions: for apparent IC50, inhibition of ST activity, in words: 400 nM IN, 20 nM substrate, 1 h 37 °C
[7] = target: T3, phosphorylation of IN by GCN2 (UniProt P04585+Q9P2K8); assay: In vitro phosphorylation assay: phosphorylation of IN by GCN2; format: biochemical, HIV-1 IN; human GCN2; conditions: GCN2 25 nM, IN 700 nM; compound 10 µM to 4.6 nM
[8] = target: T4, GCN2 (Homo sapiens, UniProt Q9P2K8); assay: In vitro phosphorylation assay: GCN2 autophosphorylation; format: biochemical; conditions: GCN2 25 nM, IN 700 nM; compound 10 µM to 4.6 nM
T4 sequence (Q9P2K8 192-1024): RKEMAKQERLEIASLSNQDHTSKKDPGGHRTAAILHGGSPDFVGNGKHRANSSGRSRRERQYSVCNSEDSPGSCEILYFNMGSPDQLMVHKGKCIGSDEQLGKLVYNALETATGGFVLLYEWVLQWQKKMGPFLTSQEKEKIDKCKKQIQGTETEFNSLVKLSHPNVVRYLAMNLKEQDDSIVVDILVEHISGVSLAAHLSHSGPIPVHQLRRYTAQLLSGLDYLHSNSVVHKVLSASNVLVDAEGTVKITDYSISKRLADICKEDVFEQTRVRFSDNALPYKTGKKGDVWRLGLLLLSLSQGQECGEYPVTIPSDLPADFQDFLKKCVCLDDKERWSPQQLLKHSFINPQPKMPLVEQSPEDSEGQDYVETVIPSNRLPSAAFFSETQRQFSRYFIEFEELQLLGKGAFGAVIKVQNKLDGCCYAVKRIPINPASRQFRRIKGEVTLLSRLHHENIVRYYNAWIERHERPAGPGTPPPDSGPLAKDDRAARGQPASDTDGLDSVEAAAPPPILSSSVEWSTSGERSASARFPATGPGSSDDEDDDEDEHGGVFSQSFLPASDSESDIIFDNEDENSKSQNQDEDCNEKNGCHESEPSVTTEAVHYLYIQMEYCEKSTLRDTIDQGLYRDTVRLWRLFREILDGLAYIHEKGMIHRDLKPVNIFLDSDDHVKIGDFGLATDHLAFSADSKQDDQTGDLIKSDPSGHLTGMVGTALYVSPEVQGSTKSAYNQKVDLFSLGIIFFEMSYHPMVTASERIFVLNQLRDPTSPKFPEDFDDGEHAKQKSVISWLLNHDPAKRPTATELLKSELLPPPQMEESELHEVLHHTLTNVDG

[9] = target: T1, IN-GCN2 interaction (6xHis-IN / GST-GCN2); design: method as in earlier work; conditions: single dose 100 µM, previous data ref 26; cited from earlier work
[10] = target: T3, phosphorylation of IN by GCN2; design: method as in earlier work; conditions: previous study ref 26; cited from earlier work
[11] = target: T4, GCN2; design: method as in earlier work; conditions: previous study ref 26; cited from earlier work
[12] = target: GST-GCN2, active truncated human GCN2 (192-1024) with an N-terminal GST tag (human) (UniProt Q9P2K8); assay: AlphaScreen or HTRF
[13] = SAR study, fresh dilutions from powder, at least three independent experiments
[14] = Human immunodeficiency virus 1, MAGI, 24 h
[15] = P4 MAGI CCR5+ cells, 24 h, read-out: CC50
[16] = plated compounds of the screen, dose-response 100 µM to 46 nM (Figure 1B), n = 9

For `COc1cccc2c1C(=O)c1c(O)c3c(c(O)c1C2=O)CC(O)(C(=O)CO)CC3OC1CC(N2CCOCC2C#N)C(O)C(C)O1` (centres unmarked) [Compound 1p], the IC50 [1, 13] was 61.1 µM, the CC50 ([2]; 24 h, read-out: CC50) was less than 0.002 µM and the “lowest dose used, at which compound was still toxic” value ([3]; human) was “about 2 nM”.
In the case of `COc1cccc2c1C(=O)c1c(O)c3c(c(O)c1C2=O)CC(O)(C(=O)CO)CC3OC1CC(N(C)C)C(O)C(C)O1` (centres unmarked) [Compound 1r], the IC50 [1, 13] is given as greater than 100 µM, the CC50 at 24 h [2] is given as 0.225 µM and the “inhibition of IN in vitro, in words” value [4] is given as “micromolar inhibitors”.
In the case of `COc1cc(OC)c2c(O)c3c(c(-c4ccc5cc6c(c(O)c5c4O)C(=O)CC(C)(O)C6)c2c1)CC(C)OC3C` (centres unmarked) [Compound 2b, Karwinskia toxin T-544], the CC50 at 24 h ([2]; 24 h, read-out: CC50) is given as greater than 5 µM, the EC50 [5, 14] is given as greater than 5 µM and the IC50 ([4]; read-out: IC50, inhibition of both 3′-P and ST) is given as 21 µM.
With `O=C1c2ccccc2C(=O)c2c(NCCNCCO)ccc(O)c21` [Compound 2d] the IC50 [1, 13] was 1.2 µM, the “fold loss of potency at inhibiting ST compared to NSC279836” value [6] was “around 20 fold” and the “ST activity compared to the DMSO control” value ([6]; increase at lower concentrations) was “up to 170%”. For the same compound, the CC50 at 24 h [2, 15] was greater than 5 µM and the “viral replication, maximum, relative to DMSO control” value ([5]; dose-dependent increase (pro-viral effect)) was “up to 290%”.
For `CCC1(O)CC(OC2CC(N(C)C)C(OC3CC(O)C(OC4CCC(=O)C(C)O4)C(C)O3)C(C)O2)c2c(cc3c(c2O)C(=O)c2c(O)ccc(O)c2C3=O)C1C(=O)OC` (centres unmarked) [NSC18334, cinerubin A], the “IN-GCN2 interaction (%)” value [1] was 5.47%, the “inhibition of IN phosphorylation, in words” value [7] was “full inhibition” and the “effect on GCN2 autophosphorylation, in words” value [8] was “inhibited GCN2 autophosphorylation”. The “apparent IC50, inhibition of ST activity, in words” value [6] was “low-micromolar”, the CC50 ([2]; 24 h, read-out: CC50) was greater than 5 µM and the EC50 [5, 14] was 0.79 µM.
In the case of `COc1cccc2c1C(=O)c1c(O)c3c(c(O)c1C2=O)C[C@@](O)(C(C)=O)C[C@@H]3O[C@H]1C[C@H](N)[C@H](O)[C@H](C)O1` [NSC82151], the “IN-GCN2 interaction (%)” value [1] is given as 50.79% and the “inhibition of IN-GCN2 interaction” value [9] is given as “around 70%”.
For `CCCCC1CCCCCCc2[nH]c(C=C3N=C(c4ccc[nH]4)C=C3OC)cc21` (centres unmarked) [NSC247562], the IC50 [1, 16] was 1.45 µM, the “IN-GCN2 interaction (%)” value [1] was 8.97% and the CC50 ([2]; 24 h, read-out: CC50) was 3.85 µM. For the same compound, the “nontoxic concentrations at which a proviral effect was seen” value ([5]; Figure S5) was less than 200 nM.
In the case of `CC(=O)OC(C)C1C2=C(C(=O)CC1(C)O)C(=O)c1c(ccc(-c3ccc4c(c3O)C(=O)C3=C(C4=O)C(C(C)OC(C)=O)C(C)(O)CC3=O)c1O)C2=O` (centres unmarked) [NSC248605, Julimycin B2], the IC50 [1, 16] is reported as 30 µM, the “IN-GCN2 interaction (%)” value [1] is reported as 6.97% and the CC50 at 24 h [2, 15] is reported as greater than 5 µM. The “effect on HIV replication, in words” value [5] was “anti-”, the EC50 ([5]; Human immunodeficiency virus 1, MAGI) was 0.167 µM and the IC50 ([4]; read-out: IC50, non-selective inhibition of IN activities) was 140 µM.
In the case of `CC(=O)[C@]1(O)Cc2c(O)c3c(c(O)c2[C@@H](O[C@H]2C[C@H](N)[C@H](O)[C@H](C)O2)C1)C(=O)c1ccccc1C3=O` [NSC256439], the “inhibition of IN-GCN2 interaction” value [9] is listed as “around 70%”.
For `O=C1c2c(O)ccc(O)c2C(=O)c2c(NCCNCCO)ccc(NCCNCCO)c21` [NSC279836, mitoxantrone, reference compound], the IC50 [1, 13] is listed as 2.4 µM, the CC50 at 24 h [2] is listed as greater than 5 µM and the “apparent IC50, inhibition of IN phosphorylation” value [10] is listed as “low micromolar range”. The “concentration up to which GCN2 autophosphorylation was not affected” value [11] was 300 µM.
With `CC1Oc2cc3c(-c4c(O)cc(O)c5c(O)c6c(cc45)OC(C)C(C)C6=O)c(O)cc(O)c3c(O)c2C(=O)C1C` (centres unmarked) [NSC345647, chaetochromin] the IC50 [1, 16] was 5.2 µM, the “IN-GCN2 interaction (%)” value [1] was 6.36% and the “inhibition of IN phosphorylation, in words” value [7] was “full inhibition”. For the same compound, the “effect on GCN2 autophosphorylation, in words” value [8] was “inhibited GCN2 autophosphorylation”, the “apparent IC50, inhibition of ST activity, in words” value [6] was “mid-nanomolar concentration range” and the CC50 at 24 h ([2]; 24 h, read-out: CC50) was greater than 5 µM. The “effect on HIV replication, in words” value [5] was “inactive” and the EC50 [5] was greater than 5 µM.
In the case of `COc1cccc2c1C(=O)c1c(O)c3c(c(O)c1C2=O)C[C@@](O)(C(=O)CO)C[C@@H]3O[C@H]1C[C@H](N2CCOCC2)[C@H](O)[C@H](C)O1` [NSC354646, reference compound], the “inhibition of IN in vitro, in words” value [4] is given as “micromolar inhibitors”.
In the case of `COc1cc2c(cc3c4c(cc5c(c42)OCO5)CCN3C)c(OC)c1OC` [NSC785155], the IC50 [1, 13] is reported as 5.6 µM, the IC50 [1, 16] is reported as 14.5 µM and the “IN-GCN2 interaction (%)” value [1] is reported as 8.90%. For the same compound, the “inhibition of IN phosphorylation, in words” value [7] was “partially inhibited”, the “effect on GCN2 autophosphorylation, in words” value [8] was “limited impact” and the “inhibition of ST activity, in words” value ([6]; 111 µM to 51 nM) was “unable to fully inhibit ST even at 111 µM”. The CC50 at 24 h [2, 15] was greater than 5 µM and the EC50 [5, 14] was greater than 5 µM.
For `COc1cc2c3c(cc4ccccc4c3c1O)N(C)CC2` [NSC785168], the IC50 [1, 13] was 17 µM, the IC50 [1, 16] was 5.7 µM and the “IN-GCN2 interaction (%)” value [1] was 4.53%. It also gave a CC50 ([2]; 24 h, read-out: CC50) greater than 5 µM and an EC50 [5, 14] greater than 5 µM.
Work on `COc1cc2c3c(c1O)-c1cc(N(Cc4ccccc4)Cc4ccccc4)ccc1CC3N(C)CC2` (centres unmarked) [NSC785176] yielded a CC50 ([3]; 24 h) greater than 5 µM.
In the case of “Recombinant full-length HIV-1 integrase (6xHis-IN fusion protein) (enzyme)”, the AlphaLISA signal (DMSO control, plate 1) [12] is reported as 5610 Alpha counts and the AlphaLISA signal (DMSO control, plate 2) [12] is reported as 3900 Alpha counts.
